Measurements published in ChEMBL document CHEMBL5226282, “TLR2 Agonistic Small Molecules: Detailed Structure-Activity Relationship, Applications, and Future Prospects” (J Med Chem, 2021).
Where a SMILES comes first, the peptide text is derived from it. The star is where a group is joined. X2 = CCCCCCCCCCCCCCCC(=O)OCC(C*)OC(=O)CCCCCCCCCCCCCCC; Palmitoyl = CCCCCCCCCCCCCCCC(=O)*

Assays:
Toll-like receptor 1/2 [1] = molecular target: T1, Toll-like receptor 1/2 (Homo sapiens, UniProt O60603+Q15399); assay: Agonist activity at TLR2/TLR1 (unknown origin); format: protein-complex assay
Toll-like receptor 2 [2] = molecular target: T2, Toll-like receptor 2 (Homo sapiens, UniProt O60603); assay: Agonist activity at TLR2 (unknown origin)
Toll-like receptor 2 [3] = molecular target: T2, Toll-like receptor 2; assay: Agonist activity at human TLR2 transfected in HEK293 cells relative to control; format: cell-based
Toll-like receptor 2 [4] = molecular target: T2, Toll-like receptor 2; assay: Agonist activity at human TLR2 transfected in HEK293 cells; format: cell-based
Toll-like receptor 2 [5] = molecular target: T2, Toll-like receptor 2; assay: Binding affinity to TLR2 (unknown origin)
Toll-like receptor 1/2 [6] = molecular target: T1, Toll-like receptor 1/2; assay: Agonist activity at TLR2/TLR1 (unknown origin) assessed as induction of IL-8 production relative to control; format: protein-complex assay; settings: filed as agonist

T2 sequence (O60603 whole entry): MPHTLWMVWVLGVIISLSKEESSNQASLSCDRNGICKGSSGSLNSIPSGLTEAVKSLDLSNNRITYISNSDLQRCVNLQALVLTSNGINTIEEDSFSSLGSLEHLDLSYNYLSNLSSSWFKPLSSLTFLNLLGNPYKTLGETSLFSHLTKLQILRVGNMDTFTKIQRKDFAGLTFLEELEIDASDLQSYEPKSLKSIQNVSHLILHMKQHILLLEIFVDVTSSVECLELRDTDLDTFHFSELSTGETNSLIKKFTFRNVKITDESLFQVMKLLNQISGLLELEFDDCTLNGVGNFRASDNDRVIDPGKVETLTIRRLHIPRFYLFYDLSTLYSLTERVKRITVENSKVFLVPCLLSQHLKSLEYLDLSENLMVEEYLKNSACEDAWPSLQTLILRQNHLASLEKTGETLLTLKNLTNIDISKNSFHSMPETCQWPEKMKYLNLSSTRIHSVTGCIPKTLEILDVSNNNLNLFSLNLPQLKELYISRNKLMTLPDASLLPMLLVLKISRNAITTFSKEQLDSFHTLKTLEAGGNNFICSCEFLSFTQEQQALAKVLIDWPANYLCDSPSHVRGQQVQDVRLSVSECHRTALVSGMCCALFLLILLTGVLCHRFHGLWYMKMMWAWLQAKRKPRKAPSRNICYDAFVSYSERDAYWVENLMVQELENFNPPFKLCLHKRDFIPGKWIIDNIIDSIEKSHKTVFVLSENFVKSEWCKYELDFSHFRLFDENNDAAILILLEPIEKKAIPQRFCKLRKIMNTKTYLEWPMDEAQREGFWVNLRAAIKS
T1 sequence (O60603 whole entry): as above
T1 sequence (Q15399 whole entry): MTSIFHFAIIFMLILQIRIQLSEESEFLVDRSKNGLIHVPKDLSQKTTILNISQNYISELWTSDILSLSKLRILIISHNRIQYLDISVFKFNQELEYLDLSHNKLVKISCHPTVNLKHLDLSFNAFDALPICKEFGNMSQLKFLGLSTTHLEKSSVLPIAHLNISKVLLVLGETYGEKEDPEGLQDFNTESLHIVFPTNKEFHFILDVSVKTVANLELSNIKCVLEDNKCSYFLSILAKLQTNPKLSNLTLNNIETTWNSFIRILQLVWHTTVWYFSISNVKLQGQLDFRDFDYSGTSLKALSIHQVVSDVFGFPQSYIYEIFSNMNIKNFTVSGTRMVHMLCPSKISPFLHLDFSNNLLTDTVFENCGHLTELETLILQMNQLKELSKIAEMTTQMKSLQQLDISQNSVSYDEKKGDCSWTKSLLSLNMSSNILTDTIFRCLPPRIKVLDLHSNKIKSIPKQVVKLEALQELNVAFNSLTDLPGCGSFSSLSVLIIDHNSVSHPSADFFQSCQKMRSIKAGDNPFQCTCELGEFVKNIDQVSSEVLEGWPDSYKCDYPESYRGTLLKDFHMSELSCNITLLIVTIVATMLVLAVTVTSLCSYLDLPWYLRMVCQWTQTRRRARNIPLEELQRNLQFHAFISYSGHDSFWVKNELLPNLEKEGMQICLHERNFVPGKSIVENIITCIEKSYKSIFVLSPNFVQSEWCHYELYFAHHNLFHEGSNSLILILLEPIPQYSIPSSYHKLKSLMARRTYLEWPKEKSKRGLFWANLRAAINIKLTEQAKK

CNc1ccc([N+](=O)[O-])cc1-n1cnc(-c2ccc([N+](=O)[O-])cc2)c1
EC50 (Toll-like receptor 1/2 [1]): 2510 nM

CCCCCCCCCCCCCCCC(=O)OCC[C@H](CS[C@H](N)C(=O)N[C@@H](CO)C(=O)N[C@@H](CCCCN)C(=O)N[C@@H](CCCCN)C(=O)N[C@@H](CCCCN)C(=O)N[C@@H](CCCCN)C(=O)N[C@@H](CO)C(=O)N[C@@H](CC(C)C)C(=O)N[C@@H](CC(C)C)C(=O)N[C@@H](CCSC)C(=O)N[C@@H](Cc1c[nH]c2ccccc12)C(=O)N[C@H](C(=O)N[C@H](C(=O)N[C@@H](CCC(N)=O)C(=O)N[C@H](C(=O)O)C(C)C)[C@@H](C)O)[C@@H](C)CC)OC(=O)CCCCCCCCCCCCCCC
EC50 (Toll-like receptor 2 [2]): 609 nM

CCCCCCCCCCCCCCCC(=O)N[C@H](CSC[C@@H](COC(=O)NCCCCCCCCCC)OC(=O)NCCCCCCCCCC)C(=O)NCCOCCOCCOCCP(=O)(O)O
EC50 (Toll-like receptor 2 [3]): 2640 nM | EC50 (Toll-like receptor 2 [4]): 2640 nM

CNc1ccc([N+](=O)[O-])cc1-n1cnc(-c2ccc(C(F)(F)F)cc2)c1
EC50 (Toll-like receptor 1/2 [1]): 5200 nM

CCCCCCCCCCCCCCCC(=O)OCCCC[C@H](CS[C@H](N)C(=O)N[C@@H](CO)C(=O)N[C@@H](CCCCN)C(=O)N[C@@H](CCCCN)C(=O)N[C@@H](CCCCN)C(=O)N[C@@H](CCCCN)C(=O)N[C@@H](CO)C(=O)N[C@@H](CC(C)C)C(=O)N[C@@H](CC(C)C)C(=O)N[C@@H](CCSC)C(=O)N[C@@H](Cc1c[nH]c2ccccc12)C(=O)N[C@H](C(=O)N[C@H](C(=O)N[C@@H](CCC(N)=O)C(=O)N[C@H](C(=O)O)C(C)C)[C@@H](C)O)[C@@H](C)CC)OC(=O)CCCCCCCCCCCCCCC
EC50 (Toll-like receptor 2 [2]): 304 nM

CCCCCCCCCCCCCCCC(=O)N[C@H](CSC[C@@H](COC(=O)CCCCCCCCCCC)OC(=O)CCCCCCCCCCC)C(=O)NCCOCCOCCOCCP(=O)(O)O
EC50 (Toll-like receptor 2 [3]): > 100000 nM | EC50 (Toll-like receptor 2 [4]): > 100000 nM

CCCCCCCCCCCCCCCC(=O)OCC[C@@H](CS[C@H](NC(C)=O)C(=O)N[C@@H](CO)C(=O)N[C@@H](CCCCN)C(=O)N[C@@H](CCCCN)C(=O)N[C@@H](CCCCN)C(=O)N[C@@H](CCCCN)C(=O)N[C@@H](CO)C(=O)N[C@@H](CC(C)C)C(=O)N[C@@H](CC(C)C)C(=O)N[C@@H](CCSC)C(=O)N[C@@H](Cc1c[nH]c2ccccc12)C(=O)N[C@H](C(=O)N[C@H](C(=O)N[C@@H](CCC(N)=O)C(=O)N[C@H](C(=O)O)C(C)C)[C@@H](C)O)[C@@H](C)CC)OC(=O)CCCCCCCCCCCCCCC
EC50 (Toll-like receptor 2 [2]): 17400 nM

CCCCCCCCCCCCCCCC(=O)OCCSC[C@H](NC(=O)COCC(=O)NCCCOCCOCCOCCCNc1ccc(C2=C(/C=C/C3=[N+](CC)c4ccccc4C3(C)C)CCC/C2=C\C=C2\N(CCC)c3ccccc3C2(C)C)cc1)C(=O)NCC(=O)N[C@H](CO)C(=O)COCC(=O)NCCCOCCOCCOCCCN
Ki (Toll-like receptor 2 [5]): 16 nM | IC50 (Toll-like receptor 2 [2]): 361 nM

CCCCCCCC(=O)OC[C@H](CSC[C@@H](N)C(=O)NCCOCCOCCOCCP(=O)(O)O)OC(=O)CCCCCCC
EC50 (Toll-like receptor 2 [3]): 3040 nM | EC50 (Toll-like receptor 2 [4]): 3040 nM

CCCCCCCCCCCCCCCC(=O)OCC[C@@H](CS[C@H](N)C(=O)N[C@@H](CO)C(=O)N[C@@H](CCCCN)C(=O)N[C@@H](CCCCN)C(=O)N[C@@H](CCCCN)C(=O)N[C@@H](CCCCN)C(=O)N[C@@H](CO)C(=O)N[C@@H](CC(C)C)C(=O)N[C@@H](CC(C)C)C(=O)N[C@@H](CCSC)C(=O)N[C@@H](Cc1c[nH]c2ccccc12)C(=O)N[C@H](C(=O)N[C@H](C(=O)N[C@@H](CCC(N)=O)C(=O)N[C@H](C(=O)O)C(C)C)[C@@H](C)O)[C@@H](C)CC)OC(=O)CCCCCCCCCCCCCCC
EC50 (Toll-like receptor 2 [2]): 46200 nM

CCCCCCCCCCCCCCCC(=O)OC[C@H](CS[C@H](N)C(=O)N[C@@H](CO)C(=O)N[C@@H](CCCCN)C(=O)N[C@@H](CCCCN)C(=O)N[C@@H](CCCCN)C(=O)N[C@@H](CCCCN)C(=O)N[C@@H](CO)C(=O)N[C@@H](CC(C)C)C(=O)N[C@@H](CC(C)C)C(=O)N[C@@H](CCSC)C(=O)N[C@@H](Cc1c[nH]c2ccccc12)C(=O)N[C@H](C(=O)N[C@H](C(=O)N[C@@H](CCC(N)=O)C(=O)N[C@H](C(=O)O)C(C)C)[C@@H](C)O)[C@@H](C)CC)OC(=O)CCCCCCCCCCCCCCC
EC50 (Toll-like receptor 2 [2]): 468 nM

CCCCCCCCCCCC[C@H](CSC[C@@H](N)C(=O)NCCOCCOCCOCCP(=O)(O)O)OC(=O)NCCCCCCCCCCC
EC50 (Toll-like receptor 2 [3]): > 100000 nM | EC50 (Toll-like receptor 2 [4]): > 100000 nM

CCCCCCCCCCCCCCCC(=O)OC[C@H](CSC[C@H](NC(=O)COCC(=O)NCCCOCCOCCOCCCNC(C)=O)C(=O)NCC(=O)N[C@H](CO)C(=O)COCC(=O)NCCCOCCOCCOCCCN)OC(=O)CCCCCCCCCCCCCCC
Ki (Toll-like receptor 2 [5]): 91 nM | EC50 (Toll-like receptor 2 [2]): 20 nM

CCCCCCCCCCCCCCCC(=O)N[C@@H](SC[C@@H](COC(=O)CCCCCCCCCCCCCCC)OC(=O)CCCCCCCCCCCCCCC)C(=O)N[C@@H](CO)C(=O)N[C@@H](CCCCN)C(=O)N[C@@H](CCCCN)C(=O)N[C@@H](CCCCN)C(=O)N[C@@H](CCCCN)C(=O)N[C@@H](CO)C(=O)N[C@@H](CC(C)C)C(=O)N[C@@H](CC(C)C)C(=O)N[C@@H](CCSC)C(=O)N[C@@H](Cc1c[nH]c2ccccc12)C(=O)N[C@H](C(=O)N[C@H](C(=O)N[C@@H](CCC(N)=O)C(=O)N[C@H](C(=O)O)C(C)C)[C@@H](C)O)[C@@H](C)CC
EC50 (Toll-like receptor 2 [2]): 23000 nM

CCCCCCCCCCCCCCCC(=O)N[C@@H](CSCC(COC(=O)CCCCCCCCCCCCCCC)OC(=O)CCCCCCCCCCCCCCC)C(=O)N[C@@H](CCCNC(=N)N)C(=O)N1CCC[C@H]1C(=O)N[C@@H](CC(=O)O)C(=O)N[C@@H](CCCNC(=N)N)C(=O)N[C@@H](Cc1ccc(O)cc1)C(N)=O (some centres not stated) (Palmitoyl-C(X2)RPDRY-NH2)
Activity (Toll-like receptor 1/2 [6]): 112%

CCCCCCCCCCCCCC(=O)OC[C@H](CSC[C@@H](N)C(=O)NCCOCCOCCOCCP(=O)(O)O)OC(=O)CCCCCCCCCCCCC
EC50 (Toll-like receptor 2 [3]): 6.3 nM | EC50 (Toll-like receptor 2 [4]): 6.3 nM

CCCCCCCCCCCCCCCC(=O)OCCSC[C@H](NC(=O)COCC(=O)NCCCOCCOCCOCCCNC)C(=O)NCC(=O)N[C@H](CO)C(=O)COCC(=O)NCCCOCCOCCOCCCN
Ki (Toll-like receptor 2 [5]): 22 nM | EC50 (Toll-like receptor 2 [2]): 674 nM

CCCCCCCCNC(=O)OC[C@H](CSC[C@@H](N)C(=O)NCCOCCOCCOCCP(=O)(O)O)OC(=O)NCCCCCCCC
EC50 (Toll-like receptor 2 [3]): 7030 nM | EC50 (Toll-like receptor 2 [4]): 7030 nM

CCCCCCCCCCCCCCCC(=O)OC[C@H](CS[C@H](NC(C)=O)C(=O)N[C@@H](CO)C(=O)N[C@@H](CCCCN)C(=O)N[C@@H](CCCCN)C(=O)N[C@@H](CCCCN)C(=O)N[C@@H](CCCCN)C(=O)N[C@@H](CO)C(=O)N[C@@H](CC(C)C)C(=O)N[C@@H](CC(C)C)C(=O)N[C@@H](CCSC)C(=O)N[C@@H](Cc1c[nH]c2ccccc12)C(=O)N[C@H](C(=O)N[C@H](C(=O)N[C@@H](CCC(N)=O)C(=O)N[C@H](C(=O)O)C(C)C)[C@@H](C)O)[C@@H](C)CC)OC(=O)CCCCCCCCCCCCCCC
EC50 (Toll-like receptor 2 [2]): 281 nM

CCCCCCCCCCCCCCCC(=O)OCCC[C@H](CS[C@H](N)C(=O)N[C@@H](CO)C(=O)N[C@@H](CCCCN)C(=O)N[C@@H](CCCCN)C(=O)N[C@@H](CCCCN)C(=O)N[C@@H](CCCCN)C(=O)N[C@@H](CO)C(=O)N[C@@H](CC(C)C)C(=O)N[C@@H](CC(C)C)C(=O)N[C@@H](CCSC)C(=O)N[C@@H](Cc1c[nH]c2ccccc12)C(=O)N[C@H](C(=O)N[C@H](C(=O)N[C@@H](CCC(N)=O)C(=O)N[C@H](C(=O)O)C(C)C)[C@@H](C)O)[C@@H](C)CC)OC(=O)CCCCCCCCCCCCCCC
EC50 (Toll-like receptor 2 [2]): 383 nM

CCCCCCCCCCCCCCCC(=O)N[C@@H](CSCC(COC(=O)CCCCCCCCCCCCCCC)OC(=O)CCCCCCCCCCCCCCC)C(=O)N[C@@H](CCC(N)=O)C(=O)N1CCC[C@H]1C(=O)N[C@@H](CC(=O)O)C(=O)N[C@@H](CCCNC(=N)N)C(=O)N[C@@H](Cc1ccc(O)cc1)C(N)=O (some centres not stated) (Palmitoyl-C(X2)QPDRY-NH2)
Activity (Toll-like receptor 1/2 [6]): 93%

CCCCCCCCCCCCOC[C@H](CSC[C@@H](N)C(=O)NCCOCCOCCOCCP(=O)(O)O)OCCCCCCCCCCCC
EC50 (Toll-like receptor 2 [3]): 550 nM | EC50 (Toll-like receptor 2 [4]): 550 nM

CCCCCCCCCCNC(=O)OC[C@H](CSC[C@@H](NC(=O)CCCCC)C(=O)NCCOCCOCCOCCP(=O)(O)O)OC(=O)NCCCCCCCCCC
EC50 (Toll-like receptor 2 [3]): 830 nM | EC50 (Toll-like receptor 2 [4]): 830 nM

CCCCCCCCCCNC(=O)OC[C@H](CSC[C@@H](NC(C)=O)C(=O)NCCOCCOCCOCCP(=O)(O)O)OC(=O)NCCCCCCCCCC
EC50 (Toll-like receptor 2 [3]): 830 nM | EC50 (Toll-like receptor 2 [4]): 830 nM

CCCCCCCCCCCCCCCC(=O)OCC[C@H](CS[C@H](NC(C)=O)C(=O)N[C@@H](CO)C(=O)N[C@@H](CCCCN)C(=O)N[C@@H](CCCCN)C(=O)N[C@@H](CCCCN)C(=O)N[C@@H](CCCCN)C(=O)N[C@@H](CO)C(=O)N[C@@H](CC(C)C)C(=O)N[C@@H](CC(C)C)C(=O)N[C@@H](CCSC)C(=O)N[C@@H](Cc1c[nH]c2ccccc12)C(=O)N[C@H](C(=O)N[C@H](C(=O)N[C@@H](CCC(N)=O)C(=O)N[C@H](C(=O)O)C(C)C)[C@@H](C)O)[C@@H](C)CC)OC(=O)CCCCCCCCCCCCCCC
EC50 (Toll-like receptor 2 [2]): 1160 nM

CCCCCCCCCCCCCCCCOC[C@H](CSC[C@@H](N)C(=O)NCCOCCOCCOCCP(=O)(O)O)OCCCCCCCCCCCCCCCC
EC50 (Toll-like receptor 2 [3]): 3450 nM | EC50 (Toll-like receptor 2 [4]): 3450 nM

CCCCCCCCCCNC(=O)OC[C@H](CSC[C@@H](N)C(=O)NCCOCCOCCOCCP(=O)(O)O)OC(=O)NCCCCCCCCCC
EC50 (Toll-like receptor 2 [3]): 820 nM | EC50 (Toll-like receptor 2 [4]): 820 nM

CCCCCCCCCCCCCCCC(=O)OCCCCC[C@H](CS[C@H](N)C(=O)N[C@@H](CO)C(=O)N[C@@H](CCCCN)C(=O)N[C@@H](CCCCN)C(=O)N[C@@H](CCCCN)C(=O)N[C@@H](CCCCN)C(=O)N[C@@H](CO)C(=O)N[C@@H](CC(C)C)C(=O)N[C@@H](CC(C)C)C(=O)N[C@@H](CCSC)C(=O)N[C@@H](Cc1c[nH]c2ccccc12)C(=O)N[C@H](C(=O)N[C@H](C(=O)N[C@@H](CCC(N)=O)C(=O)N[C@H](C(=O)O)C(C)C)[C@@H](C)O)[C@@H](C)CC)OC(=O)CCCCCCCCCCCCCCC
EC50 (Toll-like receptor 2 [2]): 4440 nM
